Results published in publication PMC10760840, “Synthesis of new imine-/amine-bearing imidazo[1,2-a]pyrimidine derivatives and screening of their cytotoxic activity” (Turkish Journal of Chemistry, 2023).
One block for each compound: values may come before it.

Columns and labels:
MCF-7 cells = assay: Sulforhodamine B (SRB) antiproliferative assay, MCF-7; assay type: cell-based, human; conditions: for IC50: Homo sapiens, MCF7, 48 h, SRB; for IC50 / inhibition on cell proliferation: MCF-7 cells; for inhibition on cell proliferation: 100 μM dose, SRB screening; for Selectivity index (SI): MCF-7 relative to healthy HUVEC cells
Description: (§1) MCF-7 (human breast cancer) and HUVEC (human umbilical vein endothelial) cell lines were cultured and maintained in high glucose Dulbecco’s modified Eagle medium supplemented with 10% FBS (Gibco Life Technologies, Grand Island, NY, USA), 100 U/mL penicillin, and […]. The MDA–MB-231 (human breast cancer) cell line was cultured in Roswell Park Memorial Institute 1640 (RPMI 1640) medium supplemented with 10% FBS (Gibco Life Technologies), 100 U/mL penicillin, and […]. All cells were passaged by trypsin EDTA when they reached 60%–70% confluence. The cells were cultivated at 37 °C in humidified air containing 5% CO2.
(§2) The antiproliferative effects of compounds on breast cancer cells were determined by the sulforhodamine B (SRB) assay. In short, cells were seeded in a 96-well cell culture plate at a density of 5 × 10^4 cells/mL and the plate was incubated for 24 h in a CO2 incubator at 37 °C. MCF-7, MDA–MB-231, and HUVEC cells were cultured for 48 h with escalating doses (1, 5, 10, 25, 50, and 100 μM) of the derivatives for determination of the IC50 values. After incubation, the medium was removed from the wells and each well was incubated with a 10% trichloroacetic acid (TCA) solution for fixation at +4 °C for 1 h. The wells were washed five times with distilled water (dH2O) to get rid of the TCA and the plate was left to dry. Fresh 0.04 (m/V) SRB dye solution was added to each well, followed by incubation for 30 min at room temperature. The plate was then dried using an air dryer after being washed four times with 1% acetic acid solution. The wells were incubated in 10 mM of the tris-base solution (pH 10.5) for 10 min on a shaker and absorbance values were measured at 565 nm with a microplate reader (Tecan Infinite® 200 PRO, Switzerland). The IC50 values of the compounds were recorded using the software GraphPad Prism 5.

MDA–MB-231 cells = assay: Sulforhodamine B (SRB) antiproliferative assay, MDA–MB-231; assay type: cell-based, human; conditions: for IC50: Homo sapiens, 48 h, SRB; for IC50 / inhibition on cell proliferation: MDA–MB-231 cells; for inhibition on cell proliferation: 100 μM dose, SRB screening; for Selectivity index (SI): MDA–MB-231 relative to healthy HUVEC cells
Description: as §1, §2

Bax/Bcl-2 genes = assay: Bax/Bcl-2 mRNA expression by qPCR in MDA–MB-231 cells; assay type: cell-based, human
Description: The mRNA levels of the Bax and Bcl-2 genes were analyzed using a qPCR protocol, following the procedure described previously. Briefly, total RNA was extracted from MDA–MB-231 cells using the Total® RNA Purification Plus Kit, following the manufacturer’s instructions (Norgen Biotek, Thorold, ON, Canada). Subsequently, synthesis of cDNA was carried out using the high-capacity cDNA reverse transcription kit (Applied Biosystems, Foster City, CA, USA). The diluted cDNA samples were combined with specific Taqman probes and Taqman PCR Master Mix, and the amplification was recorded using Applied Biosystems 7500 Real-Time PCR systems (Applied Biosystems, Thermo Fisher Scientific) for qPCR. Changes in mRNA expression levels were determined using the comparative ΔΔCT method, with β-actin serving as an endogenous control for the qPCR analysis.

HUVEC cells = assay: Sulforhodamine B (SRB) cytotoxicity assay, HUVEC healthy cells; assay type: cell-based; conditions: Homo sapiens, 48 h
Description: as §1
The antiproliferative effects of compounds on breast cancer cells were determined by the sulforhodamine B (SRB) assay. In short, cells were seeded in a 96-well cell culture plate at a density of 5 × 10^4 cells/mL and the plate was incubated for 24 h in a CO2 incubator at 37 °C. MCF-7, MDA–MB-231, and HUVEC cells were cultured for 48 h with escalating doses (1, 5, 10, 25, 50, and 100 μM) of the derivatives for determination of the IC50 values. […] The wells were incubated in 10 mM of the tris-base solution (pH 10.5) for 10 min on a shaker and absorbance values were measured at 565 nm with a microplate reader (Tecan Infinite® 200 PRO, Switzerland). The IC50 values of the compounds were recorded using the software GraphPad Prism 5.

SMILES: COc1ccc(N=Cc2cn3cccnc3n2)cc1 [3c, N-(4-Methoxyphenyl)-1-(imidazo[1,2-a]pyrimidin-2-yl)methanimine]
melting point: 191 to 192 °C

SMILES: CCN(CC)c1ccc(/N=C/c2cn3cccnc3n2)cc1 [3d, N-(4-(N^ı,N^ı-Diethylamino)phenyl)-1-(imidazo[1,2-a]pyrimidin-2-yl)methanimine]
IC50 (MCF-7 cells): 43.4 µM
inhibition on cell proliferation (MCF-7 cells): greatest inhibition
Selectivity index (SI) (MCF-7 cells): 1.6
IC50 (MDA–MB-231 cells): 35.9 µM
inhibition on cell proliferation (MDA–MB-231 cells): greatest inhibition
Selectivity index (SI) (MDA–MB-231 cells): 2.0
melting point: 182 to 183 °C
Bax/Bcl-2 ratio (mRNA expression level) (Bax/Bcl-2 genes; IC50 dose (4d: 35.1 μM)): did not have significant effects
Bax/Bcl-2 ratio (mRNA expression level) (Bax/Bcl-2 genes; IC50 × 2 dose (4d: 70.2 μM)): did not have significant effects
IC50 (HUVEC cells): 71.4 µM

SMILES: FC(F)(F)c1ccc(N=Cc2cn3cccnc3n2)cc1 [3e, N-(4-Trifluoromethylphenyl)-1-(imidazo[1,2-a]pyrimidin-2-yl)methanimine]
melting point: 224 to 226 °C

Continued, in another order:

melting point: 194 to 197 °C
SMILES: c1ccc(NCc2cn3cccnc3n2)cc1 [4a, N-(Phenyl)-1-(imidazo[1,2-a]pyrimidin-2-yl)methanamine]

melting point: 217 to 219 °C
SMILES: c1ccc2c(NCc3cn4cccnc4n3)cccc2c1 [4b, N-(Naphthalen-1-yl)-1-(imidazo[1,2-a]pyrimidin-2-yl)methanamine]

melting point: 175 to 176 °C
SMILES: COc1ccc(NCc2cn3cccnc3n2)cc1 [4c, N-(4-Methoxyphenyl)-1-(imidazo[1,2-a]pyrimidin-2-yl)methanamine]

IC50 (MCF-7 cells): 39 µM
melting point: 146 to 148 °C
SMILES: CCN(CC)c1ccc(NCc2cn3cccnc3n2)cc1 [4d, N-(4-(N^ı,N^ı-Diethylamino)phenyl)-1-(imidazo[1,2-a]pyrimidin-2-yl)methanamine]
inhibition on cell proliferation (MCF-7 cells): greatest inhibition
Selectivity index (SI) (MCF-7 cells): 1.5
IC50 (MDA–MB-231 cells): 35.1 µM
inhibition on cell proliferation (MDA–MB-231 cells): greatest inhibition
Selectivity index (SI) (MDA–MB-231 cells): 1.6
Bax/Bcl-2 ratio (mRNA expression level) (Bax/Bcl-2 genes; IC50 dose (4d: 35.1 μM)): 1.5 fold
Bax/Bcl-2 ratio (mRNA expression level) (Bax/Bcl-2 genes; IC50 × 2 dose (4d: 70.2 μM)): 1.8 fold
IC50 (HUVEC cells): 57 µM

melting point: 217 to 218 °C
SMILES: FC(F)(F)c1ccc(NCc2cn3cccnc3n2)cc1 [4e, N-(4-Trifluoromethylphenyl)-1-(imidazo[1,2-a]pyrimidin-2-yl)methanamine]
